Source: PubChem BioAssay AID192 (DTP/NCI, 2004)
Several values for one entry are separate records, joined by “and”; a condition that tells them apart may be missing. Equal values may be shown once. Inconclusive results and toxic doses are left out. The calls were made as follows: active = survival T/C of 150% or more; inactive = T/C below 125% in these data.

Tested on: BDF1 mice, B16 melanoma ip, median survival T/C
Test: NCI In Vivo Anticancer Drug Screen. Data for tumor model B16 Melanoma (intraperitoneal) in B6D2F1 (BDF1) mice
Conditions: endpoint: median survival time, higher = longer survival
Outline: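 Mice with transplantable tumors; drug vs vehicle groups; endpoint survival or tumor size; value = T/C.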

[1] = dose: 12.5 mg/kg/injection, schedule: Q01DX009 (ip), vehicle: Klucel (hydroxypropylcellulose) (HPC)
[2] = dose: 25.0 mg/kg/injection, schedule: Q01DX009 (ip), vehicle: Klucel (hydroxypropylcellulose) (HPC)
[3] = dose: 50.0 mg/kg/injection, schedule: Q01DX009 (ip), vehicle: Klucel (hydroxypropylcellulose) (HPC)
[4] = dose: 100.0 mg/kg/injection, schedule: Q01DX009 (ip), vehicle: Klucel (hydroxypropylcellulose) (HPC)
[5] = dose: 200.0 mg/kg/injection, schedule: Q01DX009 (ip), vehicle: Klucel (hydroxypropylcellulose) (HPC)
[6] = dose: 400.0 mg/kg/injection, schedule: Q01DX009 (ip), vehicle: Klucel (hydroxypropylcellulose) (HPC)

Measured: T/C

CSC1SCC2C(=O)N(C)C(C(C)C)C(=O)OCC(NC(=O)c3cnc4ccccc4n3)C(=O)NC(C)C(=O)N(C)C1C(=O)N(C)C(C(C)C)C(=O)OCC(NC(=O)c1cnc3ccccc3n1)C(=O)NC(C)C(=O)N2C (configuration not stated)
active: dose: 1.8 micrograms/kg/injection, schedule: Q01DX009 (ip), vehicle: saline with Tween-80 151 % of control and 167 % of control | dose: 1.9 micrograms/kg/injection, schedule: Q01DX009 (ip), vehicle: saline 156 % of control | dose: 8.0 micrograms/kg/injection, schedule: Q01DX009 (ip), vehicle: other 152 % of control and 155 % of control | dose: 15.0 micrograms/kg/injection, schedule: Q01DX009 (ip), vehicle: clinical formulation 169 % of control | dose: 15.0 micrograms/kg/injection, schedule: Q01DX009 (ip), vehicle: saline 174 % of control | dose: 16.0 micrograms/kg/injection, schedule: Q01DX009 (ip), vehicle: other 161 % of control | dose: 16.0 micrograms/kg/injection, schedule: Q01DX009 (ip), vehicle: saline sonified 160 % of control and 168 % of control | dose: 16.0 micrograms/kg/injection, schedule: Q01DX009 (ip), vehicle: saline 160 % of control | dose: 30.0 micrograms/kg/injection, schedule: Q01DX009 (ip), vehicle: clinical formulation 168 % of control | dose: 30.0 micrograms/kg/injection, schedule: Q01DX009 (ip), vehicle: saline 183 % of control | dose: 32.0 micrograms/kg/injection, schedule: Q01DX009 (ip), vehicle: other 157 % of control and 158 % of control and 160 % of control | dose: 32.0 micrograms/kg/injection, schedule: Q01DX009 (ip), vehicle: saline sonified 167 % of control and 170 % of control and 189 % of control | dose: 32.0 micrograms/kg/injection, schedule: Q01DX009 (ip), vehicle: saline 165 % of control | dose: 32.0 micrograms/kg/injection, schedule: Q04DX003 (ip), vehicle: saline sonified 156 % of control | dose: 60.0 micrograms/kg/injection, schedule: Q01DX009 (ip), vehicle: clinical formulation 173 % of control | dose: 60.0 micrograms/kg/injection, schedule: Q01DX009 (ip), vehicle: distilled water + alcohol 168 % of control | dose: 60.0 micrograms/kg/injection, schedule: Q01DX009 (ip), vehicle: saline 165 % of control | dose: 64.0 micrograms/kg/injection, schedule: Q01DX009 (ip), vehicle: other 159 % of control and 189 % of control and 215 % of control | dose: 64.0 micrograms/kg/injection, schedule: Q01DX009 (ip), vehicle: saline sonified 165 % of control and 172 % of control | dose: 64.0 micrograms/kg/injection, schedule: Q01DX009 (ip), vehicle: saline 176 % of control | dose: 64.0 micrograms/kg/injection, schedule: Q04DX003 (ip), vehicle: saline sonified 174 % of control | dose: 120.0 micrograms/kg/injection, schedule: Q01DX009 (ip), vehicle: Klucel (hydroxypropylcellulose) (HPC) 154 % of control | dose: 120.0 micrograms/kg/injection, schedule: Q01DX009 (ip), vehicle: distilled water + alcohol 173 % of control | dose: 120.0 micrograms/kg/injection, schedule: Q01DX009 (ip), vehicle: saline with Tween-80 162 % of control and 189 % of control | dose: 128.0 micrograms/kg/injection, schedule: Q01DX009 (ip), vehicle: saline sonified 164 % of control and 188 % of control | dose: 128.0 micrograms/kg/injection, schedule: Q01DX009 (ip), vehicle: saline 166 % of control | dose: 128.0 micrograms/kg/injection, schedule: Q04DX003 (ip), vehicle: saline sonified 165 % of control | dose: 192.0 micrograms/kg/injection, schedule: Q04DX003 (ip), vehicle: saline sonified 180 % of control | dose: 240.0 micrograms/kg/injection, schedule: Q01DX009 (ip), vehicle: Klucel (hydroxypropylcellulose) (HPC) 151 % of control | dose: 256.0 micrograms/kg/injection, schedule: Q04DX003 (ip), vehicle: saline sonified 175 % of control | dose: 480.0 micrograms/kg/injection, schedule: Q01DX009 (ip), vehicle: Klucel (hydroxypropylcellulose) (HPC) 168 % of control
inactive: dose: 0.1 micrograms/kg/injection, schedule: Q01DX009 (ip), vehicle: saline with Tween-80 106 % of control | dose: 0.2 micrograms/kg/injection, schedule: Q01DX009 (ip), vehicle: saline with Tween-80 105 % of control | dose: 0.4 micrograms/kg/injection, schedule: Q01DX009 (ip), vehicle: saline with Tween-80 108 % of control | dose: 0.9 micrograms/kg/injection, schedule: Q01DX009 (ip), vehicle: saline with Tween-80 108 % of control | dose: 0.94 micrograms/kg/injection, schedule: Q01DX009 (ip), vehicle: Klucel (hydroxypropylcellulose) (HPC) 93 % of control | dose: 0.94 micrograms/kg/injection, schedule: Q01DX009 (ip), vehicle: clinical formulation 113 % of control | dose: 0.94 micrograms/kg/injection, schedule: Q01DX009 (ip), vehicle: distilled water + alcohol 118 % of control | dose: 1.88 micrograms/kg/injection, schedule: Q01DX009 (ip), vehicle: Klucel (hydroxypropylcellulose) (HPC) 88 % of control | dose: 1.88 micrograms/kg/injection, schedule: Q01DX009 (ip), vehicle: clinical formulation 112 % of control | dose: 1.88 micrograms/kg/injection, schedule: Q01DX009 (ip), vehicle: distilled water + alcohol 117 % of control | dose: 3.75 micrograms/kg/injection, schedule: Q01DX009 (ip), vehicle: Klucel (hydroxypropylcellulose) (HPC) 102 % of control | dose: 3.75 micrograms/kg/injection, schedule: Q01DX009 (ip), vehicle: distilled water + alcohol 113 % of control | dose: 3.8 micrograms/kg/injection, schedule: Q01DX009 (ip), vehicle: saline 123 % of control | dose: 7.5 micrograms/kg/injection, schedule: Q01DX009 (ip), vehicle: Klucel (hydroxypropylcellulose) (HPC) 107 % of control | dose: 7.5 micrograms/kg/injection, schedule: Q01DX009 (ip), vehicle: distilled water + alcohol 123 % of control | dose: 15.0 micrograms/kg/injection, schedule: Q01DX009 (ip), vehicle: Klucel (hydroxypropylcellulose) (HPC) 115 % of control | dose: 30.0 micrograms/kg/injection, schedule: Q01DX009 (ip), vehicle: saline with Tween-80 88 % of control | dose: 240.0 micrograms/kg/injection, schedule: Q01DX009 (ip), vehicle: saline with Tween-80 115 % of control

COC1/C=C\C=C(/C)C(=O)NC2=CC(=O)C(N)=C(CC(C)CC(OC)C(O)C(C)C=C(C)C1OC(N)=O)C2=O (configuration not stated)
inactive: dose: 0.75 mg/kg/injection, schedule: Q01DX009 (ip), vehicle: saline with Tween-80 117 % of control

O=C([CH-]C(=O)C(F)(F)F)c1ccccc1.O=C([CH-]C(=O)C(F)(F)F)c1ccccc1.O=C([CH-]C(=O)C(F)(F)F)c1ccccc1.O=C([CH-]C(=O)C(F)(F)F)c1ccccc1.[Eu+3].c1ccncc1
inactive: [1] 92 % of control and 96 % of control | [2] 88 % of control and 97 % of control | [3] 92 % of control and 101 % of control | [4] 93 % of control and 98 % of control | [5] 102 % of control and 107 % of control | [6] 93 % of control and 98 % of control

CC(=O)Nc1cc(N(CCOS(C)(=O)=O)CCOS(C)(=O)=O)ccc1N=O
inactive: dose: 75.0 micrograms/kg/injection, schedule: Q04DX003 (ip), vehicle: saline 111 % of control | dose: 100.0 micrograms/kg/injection, schedule: Q01DX009 (ip), vehicle: saline 121 % of control | dose: 150.0 micrograms/kg/injection, schedule: Q04DX003 (ip), vehicle: saline 110 % of control | dose: 300.0 micrograms/kg/injection, schedule: Q04DX003 (ip), vehicle: saline 109 % of control

Cc1ccc(C)c(NC(=O)Nc2ccccc2)c1
inactive: [4] 96 % of control | [5] 110 % of control | [6] 96 % of control

Cc1c(Cl)ccc2c(C(O)CBr)cc(-c3ccccc3)nc12 (configuration not stated)
inactive: dose: 100.0 mg/kg/injection, schedule: Q01DX009 (ip), vehicle: saline with Tween-80 91 % of control | dose: 200.0 mg/kg/injection, schedule: Q01DX009 (ip), vehicle: saline with Tween-80 87 % of control

O=C(Nc1ccccc1F)c1ccc(C(=O)Nc2ccccc2F)cc1
inactive: [1] 100 % of control | [2] 105 % of control | [3] 101 % of control

CN(C)CCCC1c2ccccc2Oc2ccc(C(F)(F)F)cc21 (configuration not stated)
inactive: dose: 3.12 mg/kg/injection, schedule: Q01DX009 (ip), vehicle: saline 86 % of control | dose: 6.25 mg/kg/injection, schedule: Q01DX009 (ip), vehicle: saline 88 % of control | dose: 12.5 mg/kg/injection, schedule: Q01DX009 (ip), vehicle: saline 100 % of control | dose: 25.0 mg/kg/injection, schedule: Q01DX009 (ip), vehicle: saline 97 % of control

CCN1/C(=C/C=C/C=C/c2sc3ccccc3[n+]2CC)Sc2ccccc21
inactive: dose: 0.01 mg/kg/injection, schedule: Q01DX009 (ip), vehicle: saline 100 % of control | dose: 0.02 mg/kg/injection, schedule: Q01DX009 (ip), vehicle: saline 98 % of control | dose: 0.05 mg/kg/injection, schedule: Q01DX009 (ip), vehicle: saline 93 % of control | dose: 0.1 mg/kg/injection, schedule: Q01DX009 (ip), vehicle: saline 98 % of control | dose: 0.2 mg/kg/injection, schedule: Q01DX009 (ip), vehicle: saline 100 % of control
